Legend:
CAL-85-1 [1] = details: 72 h
Outline: (§1)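 Plates of 384 wells holding compound in 5 µl medium received breast cancer cell lines in 20 µl suspension and were incubated 72 h. CellTiter-Blue (2.5 µl, 2 h, 37 °C) was used for viability, read at 560/590 nm, and every plate was normalised to vehicle and a positive kill control and assessed by Z'-factor. The EC50 derives from a percent-inhibition dose-response curve fit censored at the highest concentration, leaving out rows whose drug sensitivity score was zero.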

DU-4475 [2] = details: 72 h
Outline: as §1

HDQ-P1 [3] = details: 72 h
Outline: as §1

CAL-51 [4] = details: 72 h
Outline: as §1

CAL-148 [5] = details: 72 h
Outline: as §1

CAL-120 = details: 72 h
Outline: as §1

MFM-223 [6] = details: 72 h
Outline: as §1

HCC1143 [7] = details: 72 h
Outline: as §1

SK-BR-3 [8] = details: 72 h
Outline: as §1

MDA-MB-436 = details: 72 h
Outline: as §1

HCC1937 = details: 72 h
Outline: as §1

BT-549 [9] = details: 72 h
Outline: as §1

Hs578T [10] = details: 72 h
Outline: as §1

MDA-MB-468 [11] = details: 72 h
Outline: as §1

MDA-MB-231 [12] = details: 72 h
Outline: as §1

BT-474 [13] = details: 72 h
Outline: as §1

HCC1599 [14] = details: 72 h
Outline: as §1

MFM-223 [15] = details: 72 h; remark: listed apart in the source
Experimental: (§2)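 Drug sensitivity and resistance testing (DSRT) of breast cancer cell lines in 384-well plates, 5 concentrations in 10-fold dilutions over a compound-specific 10,000-fold range. After 72 h, cytotoxicity was read by CellTox Green fluorescence and viability by CellTiter-Glo luminescence (multiplexed), normalised to DMSO and benzethonium chloride controls. EC50 is the inflection point of the fitted dose-response curve (bottom asymptote free, so it can be relative for partial curves) and is censored at the highest tested concentration. Rows with DSS 0 (no meaningful response) were excluded.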

CAL-85-1 [16] = details: 72 h; remark: listed apart in the source
Experimental: as §2

BT-549 [17] = details: 72 h; remark: listed apart in the source
Experimental: as §2

Hs578T [18] = details: 72 h; remark: listed apart in the source
Experimental: as §2

MCF-10A = details: 72 h
Experimental: as §2

CAL-51 [19] = details: 72 h; remark: listed apart in the source
Experimental: as §2

MDA-MB-468 [20] = details: 72 h; remark: listed apart in the source
Experimental: as §2

MDA-MB-231 [21] = details: 72 h; remark: listed apart in the source
Experimental: as §2

BT-474 [22] = details: 72 h; remark: listed apart in the source
Experimental: as §2

HCC1599 [23] = details: 72 h; remark: listed apart in the source
Experimental: as §2

MFM-223 [24] = details: 72 h; remark: listed apart in the source
Outline: (§3)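 In this assay, breast cancer cell lines spent 72 h with compound at 5 concentrations in 10-fold steps over a compound-specific 10,000-fold range. The first readout was cell death by CellTox Green fluorescence, and the second was viability by CellTiter-Glo luminescence, each normalised per plate to 0.1 % DMSO and a positive kill control. EC50 came from the dose-response curves, censored at the top concentration.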

HCC1143 [25] = details: 72 h; remark: listed apart in the source
Outline: as §3

DU-4475 [26] = details: 72 h; remark: listed apart in the source
Outline: as §3

HDQ-P1 [27] = details: 72 h; remark: listed apart in the source
Outline: as §3

HCC1599 [28] = details: 72 h; remark: listed apart in the source
Outline: as §3

CAL-148 [29] = details: 72 h; remark: listed apart in the source
Outline: as §3

MFM-223 [30] = experiment: normalised viability (% of control), CellTiter-Blue; higher = more viable cells (about 100 = DMSO control); details: incubation time: 72 h
Outline: (§4)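 Each value is normalised viability at a single listed concentration of the series. Breast cancer cell lines in 384-well plates were incubated 72 h with compound and read by CellTiter-Blue fluorescence at 560/590 nm, with vehicle set to 100 and a positive kill control to 0 on every plate.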

HCC1143 [31] = experiment: as above; details: incubation time: 72 h
Outline: as §4

DU-4475 [32] = experiment: as above; details: incubation time: 72 h
Outline: as §4

SK-BR-3 [33] = experiment: as above; details: incubation time: 72 h
Outline: as §4

BT-549 [34] = experiment: as above; details: incubation time: 72 h
Outline: as §4

HDQ-P1 [35] = experiment: as above; details: incubation time: 72 h
Outline: as §4

MDA-MB-231 [36] = experiment: as above; details: incubation time: 72 h
Outline: as §4

CAL-148 [37] = experiment: as above; details: incubation time: 72 h
Outline: as §4

HCC1143 [38] = details: 72 h; remark: listed apart in the source
Experimental: as §2

CAL-148 [39] = details: 72 h; remark: listed apart in the source
Experimental: as §2

Q: For `CC[C@]1(O)C[C@H]2CN(CCc3c([nH]c4ccccc34)[C@@](C(=O)OC)(c3cc4c(cc3OC)N(C=O)[C@H]3[C@@](O)(C(=O)OC)[C@H](OC(C)=O)[C@]5(CC)C=CCN6CC[C@]43[C@@H]65)C2)C1` [Vincristine], which “EC50, CellTiter-Blue viability” value (CAL-85-1 [1]) is on record?
A: 0.00533 µM

Q: And the “EC50, CellTiter-Blue viability” value (DU-4475 [2])?
A: 0.0179 µM

Q: What about the “EC50, CellTiter-Blue viability” value (HDQ-P1 [3]) of the same molecule?
A: 0.0112 µM

Q: And the “EC50, CellTiter-Blue viability” value (CAL-51 [4])?
A: 0.0267 µM

Q: What about the “EC50, CellTiter-Blue viability” value (CAL-148 [5]) of the same molecule?
A: 0.00872 µM

Q: And the “EC50, CellTiter-Blue viability” value (CAL-120)?
A: 0.001 µM

Q: And the “EC50, CellTiter-Blue viability” value (MFM-223 [6])?
A: 0.0169 µM

Q: What about the “EC50, CellTiter-Blue viability” value (HCC1143 [7]) of the same molecule?
A: 0.00162 µM

Q: And the “EC50, CellTiter-Blue viability” value (SK-BR-3 [8])?
A: 0.000608 µM

Q: What about the “EC50, CellTiter-Blue viability” value (MDA-MB-436) of the same molecule?
A: 0.00821 µM

Q: What about the “EC50, CellTiter-Blue viability” value (HCC1937) of the same molecule?
A: 0.00357 µM

Q: And the “EC50, CellTiter-Blue viability” value (BT-549 [9])?
A: 0.0038 µM

Q: And the “EC50, CellTiter-Blue viability” value (Hs578T [10])?
A: 0.00272 µM

Q: And the “EC50, CellTiter-Blue viability” value (MDA-MB-468 [11])?
A: 0.0006 µM

Q: What about the “EC50, CellTiter-Blue viability” value (MDA-MB-231 [12]) of the same molecule?
A: 0.00249 µM

Q: What about the “EC50, CellTiter-Blue viability” value (BT-474 [13]) of the same molecule?
A: 0.0003 µM

Q: What about the “EC50, CellTiter-Blue viability” value (HCC1599 [14]) of the same molecule?
A: 0.0277 µM

Q: And the “EC50, CellTox Green” value (MFM-223 [15])?
A: 0.02 µM

Q: What about the “EC50, CellTox Green” value (CAL-85-1 [16]) of the same molecule?
A: 0.00239 µM

Q: And the “EC50, CellTox Green” value (BT-549 [17])?
A: 0.0091 µM

Q: What about the “EC50, CellTox Green” value (Hs578T [18]) of the same molecule?
A: 0.0851 µM

Q: What about the “EC50, CellTox Green” value (MCF-10A) of the same molecule?
A: 0.0041 µM

Q: And the “EC50, CellTox Green” value (CAL-51 [19])?
A: 0.0281 µM

Q: What about the “EC50, CellTox Green” value (MDA-MB-468 [20]) of the same molecule?
A: 0.0096 µM

Q: And the “EC50, CellTox Green” value (MDA-MB-231 [21])?
A: 0.00549 µM

Q: What about the “EC50, CellTox Green” value (BT-474 [22]) of the same molecule?
A: 0.00419 µM

Q: What about the “EC50, CellTox Green” value (HCC1599 [23]) of the same molecule?
A: 0.489 µM

Q: What about the “EC50, CellTiter-Glo” value (MFM-223 [24]) of the same molecule?
A: 0.0199 µM

Q: And the “EC50, CellTiter-Glo” value (HCC1143 [25])?
A: 0.00331 µM

Q: And the “EC50, CellTiter-Glo” value (DU-4475 [26])?
A: 0.157 µM

Q: And the “EC50, CellTiter-Glo” value (HDQ-P1 [27])?
A: 0.00222 µM

Q: What about the “EC50, CellTiter-Glo” value (HCC1599 [28]) of the same molecule?
A: 0.0111 µM

Q: And the “EC50, CellTiter-Glo” value (CAL-148 [29])?
A: 0.00648 µM

Q: And the normalised viability (MFM-223 [30]; 1000 nM)?
A: 27.9%

Q: What about the normalised viability (MFM-223 [30]; 10000 nM) of the same molecule?
A: 20.5%

Q: And the normalised viability (HCC1143 [31]; 1000 nM)?
A: 32.1%

Q: And the normalised viability (HCC1143 [31]; 10000 nM)?
A: 33.6%

Q: And the normalised viability (DU-4475 [32]; 10 nM)?
A: 56%

Q: What about the normalised viability (DU-4475 [32]; 100 nM) of the same molecule?
A: 19.5%

Q: And the normalised viability (SK-BR-3 [33]; 1000 nM)?
A: 16.6%

Q: What about the normalised viability (SK-BR-3 [33]; 10000 nM) of the same molecule?
A: 16.8%

Q: What about the normalised viability (BT-549 [34]; 1000 nM) of the same molecule?
A: 14.6%

Q: What about the normalised viability (BT-549 [34]; 10000 nM) of the same molecule?
A: 20.2%

Q: And the normalised viability (HDQ-P1 [35]; 10 nM)?
A: 46.4%

Q: What about the normalised viability (HDQ-P1 [35]; 100 nM) of the same molecule?
A: 43.8%

Q: And the normalised viability (MDA-MB-231 [36]; 1000 nM)?
A: 14.4%

Q: What about the normalised viability (MDA-MB-231 [36]; 10000 nM) of the same molecule?
A: 14.5%

Q: And the normalised viability (CAL-148 [37]; 10 nM)?
A: 21.4%

Q: And the normalised viability (CAL-148 [37]; 100 nM)?
A: 20.6%

Q: What does the source list for `COc1ccc(-c2ccc3c(N4CCOC[C@@H]4C)nc(N4CCOC[C@@H]4C)nc3n2)cc1CO` [AZD8055]?
A: EC50, CellTiter-Blue viability (CAL-85-1 [1]): 0.0347 µM; EC50, CellTiter-Blue viability (DU-4475 [2]): 0.104 µM; EC50, CellTiter-Blue viability (HDQ-P1 [3]): 0.0238 µM; EC50, CellTiter-Blue viability (CAL-51 [4]): 0.0219 µM; EC50, CellTiter-Blue viability (CAL-148 [5]): 0.0345 µM; EC50, CellTiter-Blue viability (CAL-120): 0.0454 µM; EC50, CellTiter-Blue viability (MFM-223 [6]): 0.0187 µM; EC50, CellTiter-Blue viability (HCC1143 [7]): 0.0792 µM; EC50, CellTiter-Blue viability (SK-BR-3 [8]): 0.0201 µM; EC50, CellTiter-Blue viability (MDA-MB-436): 0.106 µM; EC50, CellTiter-Blue viability (HCC1937): 0.0154 µM; EC50, CellTiter-Blue viability (BT-549 [9]): 0.061 µM; EC50, CellTiter-Blue viability (Hs578T [10]): 0.0369 µM; EC50, CellTiter-Blue viability (MDA-MB-468 [11]): 0.149 µM; EC50, CellTiter-Blue viability (MDA-MB-231 [12]): 0.0474 µM; EC50, CellTiter-Blue viability (BT-474 [13]): 0.0838 µM; EC50, CellTiter-Blue viability (HCC1599 [14]): 0.0628 µM; EC50, CellTox Green (HCC1143 [38]): 1.47 µM; EC50, CellTox Green (CAL-85-1 [16]): > 10 µM; EC50, CellTox Green (CAL-51 [19]): 0.0052 µM; EC50, CellTox Green (MDA-MB-468 [20]): 6.94 µM; EC50, CellTox Green (BT-474 [22]): 9.15 µM; EC50, CellTox Green (CAL-148 [39]): 0.0307 µM; EC50, CellTiter-Glo (MFM-223 [24]): 0.0203 µM; EC50, CellTiter-Glo (HCC1143 [25]): 0.0404 µM; EC50, CellTiter-Glo (DU-4475 [26]): 0.229 µM; EC50, CellTiter-Glo (HDQ-P1 [27]): 0.0305 µM; EC50, CellTiter-Glo (HCC1599 [28]): 0.152 µM; EC50, CellTiter-Glo (CAL-148 [29]): 0.0641 µM; normalised viability (MFM-223 [30]; 10000 nM): 14.6%; normalised viability (HCC1143 [31]; 10000 nM): 28.4%; normalised viability (DU-4475 [32]; 100 nM): 58.6%; normalised viability (SK-BR-3 [33]; 10000 nM): 10.4%; normalised viability (BT-549 [34]; 10000 nM): 14.4%; normalised viability (HDQ-P1 [35]; 100 nM): 45.6%; normalised viability (MDA-MB-231 [36]; 10000 nM): 22.7%; normalised viability (CAL-148 [37]; 100 nM): 30.4%
